# “Also recorded” adds a separate entry of the source.
# Test system: IFN+CD8+ T cells
# Test: GF mice inoculated with human faecal samples or mouse B5 caecal contents, with or without antibiotics
# Assay type: in vivo
# Settings: antibiotics via drinking water or chloroform-treated caecal contents
# Text: Next, it was investigated whether the human gut microbiota contained microbes which were able to induce IFN+CD8+ T cells (FIG. 4). Stool samples were collected from six healthy human volunteers (A˜F) (FIG. 5). The samples were individually administered orally into germ free […] mice kept in sterile isolators (five or six mice per group). Four weeks after oral inoculation of stool samples, mice were sacrificed, and small intestine and colons were harvested and investigated for IFN+CD8+ T-cells by FACS.
# The mice were then orally administrated drinking water with or without Ampicillin, Metronidazole, Streptomycin or Tylosin (five mice per group) (FIG. 10). Alternatively, cecal contents of mouse B #5 were treated with 3% chloroform and orally inoculated into another five germ-free mice (‘B #5+Chrolo’). […] B #5 microbiota.
# Human faecal samples were collected at the RIKEN institute and Keio University according to the study protocol approved by the institutional review board. Informed consent was obtained from each subject. Faecal samples and mouse B5 caecal contents were suspended in equal volume (w/v) of PBS containing 20% glycerol/PBS, snap-frozen in liquid nitrogen, and stored at −80° C. until use. The frozen stocks were thawed, suspended in TS broth, filtered through a 100 µm cell strainer, and orally inoculated into GF mice (approximately 5-60 mg/250 μL, per mouse). After 24 hours of inoculation, some mice were treated with ampicillin (1 g/L), metronidazole (1 g/L), tylosin (0.5 g/L) or streptomycin (0.5 g/L) via the drinking water. For chloroform treatment of B5 caecal contents, the caecal content suspension was mixed with chloroform (final concentration 3%) and incubated in a shaking water bath for 60 min followed by evaporation of chloroform via bubbling with N2 gas for 30 min. To isolate IFN+[…] T cell-inducing bacterial strains, caecal contents from GF+B5-Amp2 and GF+B5-Amp3 mice were serially dilated with PBS and seeded onto nonselective and selective agar plates (GAM, CM0151, and BBE). After culture under anaerobic conditions (80% N2, 10% H2, 10% CO2) in an anaerobic chamber (Coy Laboratory Products) at 37° C. for 2 to 4 days, individual colonies were picked, and the 16S rRNA gene region was amplified with universal primers (27F: 5′-[…]-3′ (SEQ ID NO:12), 1492R: 5′-[…]-3′ (SEQ ID NO:13)) and sequenced. Individual isolates in the culture collection were grouped as “strains” if their 16S rRNA gene sequences had 100% identity. The resulting strain sequences were compared to those in the RDP database and to OTUs observed in caecal samples from GF+B5−Amp2 and GF+B5−Amp3 to determine closely related species or strains and their corresponding OTUs. To prepare a bacterial mixture, bacterial strains were individually grown in GAM, CM0149, or EG both to confluence and equal volumes of media were mixed. […] The mixture of isolates was orally administered to GF mice (approximately 1-2×10^8 CFU of each strain in 250 μL medium per mouse). All mice receiving a given mixture of bacterial strains were maintained in a single gnotobiotic isolator. For administration of heat-killed bacteria, 11 strains cultured individually for 3 days were mixed, washed with autoclaved water, heat-killed at 121° C. for 30 min, and given to GF mice via the drinking water (2-10×10^7 equivalent CFU of each strain per 1 mL) for 4 weeks. C57BL/6 GF mice (6-12 weeks old) were used and analysed 3-4 weeks after bacterial colonization unless otherwise indicated.
Compound,effect of treatment on IFN+CD8+ T cell induction by mouse B5 microbiota,effect of treatment on IFN+CD8+ T cell induction by mouse B5 microbiota (listed as Amp),effect of treatment on IFN+CD8+ T cell induction by mouse B5 microbiota (listed as Chlo)
"CC1(C)S[C@@H]2[C@H](NC(=O)[C@H](N)c3ccccc3)C(=O)N2[C@H]1C(=O)O [Ampicillin, ampicillin]",enhanced induction,enhanced the induction of IFN+CD8 T cells; also recorded: enhanced the observed induction,–
"Cc1ncc([N+](=O)[O-])n1CCO [MNZ, metronidazole]",substantial decrease in IFN+CD8 T cell induction,–,–
"[H]/N=C(/N)N[C@H]1[C@H](O)[C@@H](O)[C@H](O[C@@H]2O[C@@H](C)[C@](O)(C=O)[C@H]2O[C@@H]2O[C@@H](CO)[C@H](O)[C@@H](O)[C@@H]2NC)[C@@H](N/C(N)=N\[H])[C@@H]1O [STM, streptomycin]",substantial decrease in IFN+CD8 T cell induction,–,–
"CC[C@H]1OC(=O)C[C@@H](O)[C@H](C)[C@@H](O[C@@H]2O[C@H](C)[C@@H](O[C@H]3C[C@@](C)(O)[C@@H](O)[C@H](C)O3)[C@H](N(C)C)[C@H]2O)[C@@H](CC=O)C[C@@H](C)C(=O)/C=C/C(C)=C/[C@@H]1CO[C@@H]1O[C@H](C)[C@@H](O)[C@@H](OC)[C@H]1OC [Tyl, tylosin]",substantial decrease in IFN+CD8 T cell induction,–,–
ClC(Cl)Cl [chloroform],reduced the induction capability; also recorded: abrogated induction altogether,–,abrogated it altogether
